Laboratory results as given in patent US8329645B2, “Polymyxin derivatives and uses thereof” (priority 2008, dated 2012).
Several values for one entry are separate records, joined by “and”; a condition that tells them apart may be missing. Identical values can stand only once.

Key:
[1] = test system: E. coli IH3080 (K1:O18); assay: Experimental E. coli peritonitis model in mice (Example 12); type: in vivo
Protocol: A suspension of E. coli IH3080 (K1:O18) in saline (0.9% NaCl) was prepared from an overnight culture on a blood agar plate (Statens Serum Institut, Copenhagen, Denmark). All mice (female NMR1 from Harlan Scandinavia, Allerød, Denmark; weight, 25-30 g) were inoculated intraperitoneally with 0.5 ml of the suspension containing 0.96×10^6 CFU per ml in the lateral lower quadrant of the abdomen. At 1 h, the CFU count was determined from three mice and the remaining mice (four mice per group) were treated with a subcutaneous injection of 0.2 ml of erythromycin solution in saline (corresponding to 5 mg/kg body weight) or NAB7061 solution in saline (corresponding to 5 mg/kg body weight), or both erythromycin and NAB7061 (corresponding to 5 mg/kg body weight of both drugs; given at two separate sites). Control group received two 0.2 ml injections of saline. At 4.5 h postinfection, all mice were anaesthetized with CO2 and sacrificed. Sterile saline (2 ml) was injected intraperitoneally and the abdomen was gently massaged before it was opened and the fluid sampled. Appropriate dilutions of the fluid were plated on blood agar plates, the plates were incubated overnight, and the colonies were counted.

[2] = test system: K. pneumoniae ATCC13883; settings: K. pneumoniae ATCC13883
Protocol: (§1) MICs were determined by using E-strips (Biodisk Ltd., Solna, Sweden) according to the manufacturer's instructions.
(§2) The strains originated from ATCC (11 strains), CCUG (11 strains), and NCTC (The National Collection of Type Cultures, Colindale, U.K.; 2 strains). Eight strains (the F-strains) were purchased from Mobidiag Ltd., Helsinki, Finland.

[3] = test system: E. coli ATCC25922; settings: E. coli ATCC25922
Protocol: as §1, §2

[4] = test system: E. coli IH3080; assay: E-test MIC with or without NAB7061 (4 μg/ml), Mueller-Hinton agar; type: cell-based, Escherichia coli
Protocol: as §1, §2

[5] = test system: E. coli (ATCC25922 and IH3080), K. pneumoniae ATCC13883, and E. cloacae ATCC23355; assay: E-test sensitization by NAB7061, range over the tested strains; type: cell-based; settings: four tested strains
Protocol: as §1

[6] = test system: E. cloacae ATCC23355; assay: E-test MIC with or without NAB7061 (4 μg/ml), Mueller-Hinton agar; type: cell-based, Enterobacter cloacae
Protocol: as §1, §2

[7] = test system: E. coli IH3080; assay: Sensitization to rifampin: growth inhibition around wells on LB plates containing rifampin; type: cell-based, Escherichia coli; settings: 4 μg of compound
[8] = test system: P. mirabilis ATCC29906; assay: Growth inhibition around wells on LB agar plates; type: cell-based, Proteus mirabilis
Protocol: (§3) From an overnight-grown culture of IH3080 on LB agar, a suspension of approx. 10^8 cells/ml was prepared in 0.9% NaCl. Aliquots of this suspension were then pipetted on the agar plates and the plates were gently shaken to spread the suspension evenly on the entire surface of the plate. Thereafter, the unabsorbed part of the suspension was removed by using a Pasteur pipette. After the surface had dried, small wells (diameter, 2 mm) were drilled on the plates (five wells per plate) by using a sterile sharp-edged narrow metal tube, single-use pipette tip, and vacuum suction. An alternative method used a swab to spread the inoculum. Samples (4 μl and 10 μl) of the peptide solution in 0.9% NaCl (at concentrations of 1 μg/ml and 0.1 μg/ml) were then pipetted to the wells and the sample fluids were allowed to absorb. Controls included 0.9% NaCl solution without the compound to be tested. The plates were then incubated for 18 h at 37° C. whereafter the diameters of growth inhibition zones around each well were measured; the diameter of the well itself was not reduced. Finally, the diameters were converted to surface areas of growth inhibition (in square mm).
(§4) The susceptibility of eleven Gram-negative bacterial strains (nine different species) to NAB734 and polymyxin B was compared by using the susceptibility determination method described in Example 2. The strains included those belonging to the species of Serratia marcescens and Proteus mirabilis, both species generally known to be resistant to polymyxin. Furthermore, the susceptibility determination was also performed by using the Gram-positive bacterium, Staphylococcus aureus, also generally known to be polymyxin-resistant. Ten of the strains originated from ATCC (American Type Culture Collection, Manassas, Va., U.S.A.), and one from CCUG (Culture Collection of University of Gothenburg, Sweden). The source of E. coli IH3080 has been described in Example 2. Polymyxin B sulfate was from Sigma-Aldrich (St. Louis, Mo., USA).

[9] = test system: Acinetobacter baumannii ATCC 19606; assay: Growth inhibition around wells on LB agar plates; type: cell-based; settings: A. baumannii ATCC 19606
[10] = test system: Ps. aeruginosa ATCC 27853; assay: Sensitization to rifampin: growth inhibition around wells on LB plates containing rifampin; type: cell-based, Pseudomonas aeruginosa; settings: 4 μg
[11] = test system: S. aureus ATCC 25923; assay: Growth inhibition around wells on LB agar plates; type: cell-based, Staphylococcus aureus
Protocol: as §3, §4

[12] = test system: Pseudomonas aeruginosa ATCC 27853; assay: Growth inhibition around wells on LB agar plates; type: cell-based; settings: Ps. aeruginosa ATCC 27853
In short: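 Activity against Pseudomonas aeruginosa ATCC 27853 was assessed by agar well diffusion on LB plates. A suspension of about 10^8 cells/ml in 0.9% NaCl was spread over the agar and the excess removed. Once the surface had dried, 2 mm wells were drilled and filled with peptide dissolved in 0.9% NaCl. Plates were incubated 18 h at 37° C, and inhibition zone diameters were converted to areas in square mm.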

[13] = test system: E. coli IH3080; assay: Growth inhibition around wells on LB agar plates; type: cell-based, Escherichia coli; settings: 10 μg of compound per well
In short: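 Growth inhibition of encapsulated E. coli IH3080 (K1:O018) was assessed on LB agar plates. A suspension of about 10^8 cells/ml in 0.9% NaCl, made from an overnight LB agar culture, was spread across the plate surface and the excess removed. After drying, 2 mm wells were drilled, with 0.9% NaCl as control. Following 18 h at 37° C., inhibition zone diameters around wells were converted to areas in square mm.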

[14] = test system: K. pneumoniae CCUG45421; assay: Growth inhibition around wells on LB agar plates; type: cell-based, Klebsiella pneumoniae
Protocol: as §3, §4

[15] = test system: K. pneumoniae ATCC13883; assay: Growth inhibition around wells on LB agar plates; type: cell-based, Klebsiella pneumoniae
Protocol: as §3, §4

[16] = test system: K. oxytoca ATCC13182; assay: Growth inhibition around wells on LB agar plates; type: cell-based, Klebsiella oxytoca
Protocol: as §3, §4

[17] = test system: E. coli ATCC25922; assay: Growth inhibition around wells on LB agar plates; type: cell-based, Escherichia coli
Protocol: as §3, §4

[18] = test system: E. cloacae ATCC23355; assay: Growth inhibition around wells on LB agar plates; type: cell-based, Enterobacter cloacae
Protocol: as §3, §4

[19] = test system: A. baumannii ATCC 19606; assay: Sensitization to rifampin: growth inhibition around wells on LB plates containing rifampin; type: cell-based, Acinetobacter baumannii; settings: 4 μg
[20] = test system: S. marcescens ATCC8100; assay: Growth inhibition around wells on LB agar plates; type: cell-based, Serratia marcescens
Protocol: as §3, §4

[21] = test system: C. freundii ATCC8090; assay: Growth inhibition around wells on LB agar plates; type: cell-based, Citrobacter freundii
Protocol: as §3, §4

With `CC[C@H]1OC(=O)[C@H](C)[C@@H](O[C@H]2C[C@@](C)(OC)[C@@H](O)[C@H](C)O2)[C@H](C)[C@@H](O[C@@H]2O[C@H](C)C[C@H](N(C)C)[C@H]2O)[C@](C)(O)C[C@@H](C)C(=O)[C@H](C)[C@@H](O)[C@]1(C)O` [Erythromycin] the “CFU counts in peritoneal fluid” value ([1]; 4.5 h postinfection ([…] after treatment), 5 mg/kg subcutaneous) was 8.9 (±6.4)×10^6 per ml, the “factor by which the bacterial count increased” value ([1]; from 1 h to 4.5 h postinfection) was 12 and the “Sensitization factor to antibiotic (MIC without / with 4 μg/ml of NAB 7061)” value [2] was 24-48. The “Sensitization factor to antibiotic (MIC without / with 4 μg/ml of NAB 7061)” value [3] was 32-48, the “Sensitization factor to antibiotic (MIC without / with 4 μg/ml of NAB 7061)” value [4] was 32-42 and the “Sensitization factor to antibiotic at 4 μg/ml of NAB7061, range over the tested strains” value [5] was 21-48. For the same molecule, the “Sensitization factor to antibiotic (MIC without / with 4 μg/ml of NAB 7061)” value [6] was 21-43.

“OA-Thr-DSer-cy[Dab-Dab-DPhe-Thr-Dab-Dab-Thr-] [NAB 734]” was tested, and the “growth inhibition around a well in the presence of rifampin” value ([7]; rifampin 0 μg/ml) was 113 square millimeters, the “growth inhibition around a well in the presence of rifampin” value ([7]; rifampin 0.1 μg/ml) was 154 square millimeters and the “growth inhibition around a well in the presence of rifampin” value ([7]; rifampin 1.0 μg/ml) was 201 square millimeters. The “growth inhibition around a well” value ([8]; 4 μg) was 0 square millimeters, the “growth inhibition around a well” value ([8]; 10 μg) was 0 square millimeters and the “growth inhibition around a well” value ([9]; 4 μg) was 38 square millimeters and 57 square millimeters. For the same molecule, the “growth inhibition around a well” value ([9]; 10 μg) was 95 square millimeters and 79 square millimeters, the “growth inhibition around a well in the presence of rifampin” value ([10]; rifampin 0 μg/ml) was 13 square millimeters and the “growth inhibition around a well in the presence of rifampin” value ([10]; rifampin 0.3 μg/ml) was 20 square millimeters. For the same molecule, the “growth inhibition around a well” value ([11]; 4 μg) was 0 square millimeters, the “growth inhibition around a well” value ([11]; 10 μg) was 0 square millimeters and the “growth inhibition around a well” value ([12]; 4 μg) was 13 square millimeters. The “growth inhibition around a well” value ([12]; 10 μg) was 50 square millimeters, the “growth inhibition around a well” value [13] was 177 square millimeters and the “growth inhibition around a well” value ([14]; 4 μg) was 64 square millimeters. The “growth inhibition around a well” value ([14]; 10 μg) was 104 square millimeters, the “growth inhibition around a well” value ([15]; 4 μg) was 64 square millimeters and the “growth inhibition around a well” value ([15]; 10 μg) was 113 square millimeters. The “growth inhibition around a well” value ([16]; 4 μg) was 95 square millimeters, the “growth inhibition around a well” value ([16]; 10 μg) was 143 square millimeters and the “growth inhibition around a well” value ([17]; 4 μg) was 133 square millimeters. For the same molecule, the “growth inhibition around a well” value ([17]; 10 μg) was 177 square millimeters, the “growth inhibition around a well” value ([18]; 4 μg) was 133 square millimeters and the “growth inhibition around a well” value ([18]; 10 μg) was 177 square millimeters. For the same molecule, the “growth inhibition around a well in the presence of rifampin” value ([19]; rifampin 0 μg/ml) was 38 square millimeters, the “growth inhibition around a well in the presence of rifampin” value ([19]; rifampin 0.1 μg/ml) was 201 square millimeters and the “growth inhibition around a well in the presence of rifampin” value ([19]; rifampin 0.3 μg/ml) was 283 square millimeters. For the same molecule, the “growth inhibition around a well” value ([20]; 4 μg) was 0 square millimeters, the “growth inhibition around a well” value ([20]; 10 μg) was 0 square millimeters and the “growth inhibition around a well” value ([21]; 4 μg) was 133 square millimeters. For the same molecule, the “growth inhibition around a well” value ([21]; 10 μg) was 177 square millimeters.
